Data on 5 molecules can be found in patent US7935726B1, “Tricyclic pyrones” (Kansas State University Research Foundation, priority 1999, dated 2011).

One data set relates to L1210 tumor cells. Description: cytotoxicity to L1210 tumor cells. The format is cell-based. An excerpt: (§1) The reported procedures for the inhibitory activities of ACAT (Tomoda, H.; Nishida, H.; Masuma, R.; Cao, J.; Okuda, S.; Omura, S. J. Antibiot. 1991, 44, 136-143), CETP (Tomoda, H.; Tabata, N.; Masuma, R.; Si, S.-Y.; Omura, S. J. Antibiot. 1998, 51, 618-623; D. H. Hua et al. Tetrahedron 2003, 59, 4795-4803), L1210 tumor cells (Perchellet, E. M.; Ladesich, J. B.; Magill, M. J.; Chen, Y.; Hua, D. H.; Perchellet, J. P. Anti-Cancer Drugs 1999, 10, 489-504), and APP C99-induced cell death (Jin, L.-W.; Hua, D. H.; Shie, F.-S.; Maezawa, I.; Sopher, B.; Martin, G. M. J. Mol. Neurosci. 2002, 19, 57-61) were followed.

For another data set, the system named is MC65 cells. Description: protection from APP C99-induced cell death in MC65 cells. The data set is classed as cell-based.
Description: as §1, with “followed. […]” for “followed.”

The test system of data set [1] is PKC-γ. Description: canine study: PKC-γ level of dog lens (Western blot). The format is in vivo, Beagle dogs. On the procedure:
(§2) A pilot study was conducted to determine initial toxicity and efficacy in a Beagle model. The study was conducted at the fully accredited facility at the Kansas State University Veterinary Clinic. The dogs were fed a 40% galactose diet for 6 weeks. These dogs developed cataracts. Compound 1 was administered orally at 100 mg/kg body weight/day for 6 weeks. At this dose, the polyol levels were 50% normalized (FIG. 4) and PKCγ levels were 80% normalized (FIG. 5). […] The PkC-γ levels of dogs treated with galactose is 30.8%, G+I is 84.1% and C+I is 79.7%. Additional testing at higher doses is planned to determine optimal dose for efficacy with no or low toxicity. These experiments are well within the skill and experience of one of ordinary skill in the art and can be performed without undue experimentation.
Background: Immunoblotting shows a protein as a band on a membrane.

Data set [2] is described as follows: pathology studies in treated rats. The format is in vivo. To be noted: 100 mg/Kg body weight per day, 9 days.
The subject of data set [3] is PKC-γ. Description: galactose-fed rats: PKC-γ levels in lens and sciatic nerve (Western blot). The data set is classed as in vivo, Sprague Dawley Rats. To be noted: 100 mg/Kg body weight per day; for PKC-γ levels in sciatic nerve cells: high galactose feed, FIG. 3B. On the procedure:
In order to test for in vivo effects of ARI's, rats were fed a 40% galactose diet for 9 days and the accumulation of galactitol was measured in lens tissue. This tissue has high aldose reductase activity and the eye has a separate vasculature. Thus, if the ARI works in the lens this is a good indication that the drug works and can penetrate to most tissues.
The specific experimental details follow. […] The rats were given food supplemented with inhibitor in the morning and then given food and water ad libitum the rest of the day. They were kept on a 12-hour on and 12-hour off light cycle. After 9 days, the rats were sacrificed with an overdose of CO2 and then eyes were taken and immediately frozen on dry ice for later polyol and PKC analyses. Experiments on all rats conformed to the ARVO resolution on the Use of Animals in Research.
The lenses were removed from the enucleated eyes and weighed. They were put in 200 μL lysis buffer (50 mM Tris, 100 mM NaCl, M-Per Pierre Zwitterionic detergent, 5 mM NaF, 1 mM Na3VO4, 40 mM β-glycerophosphate, 6 μg/mL chymotrypsin, 10 μM3,4-dichlorocoumarin, 10 μM E-64, 1 μg/mL leupeptin, 1 μg/mL pepstatin A, 1 μg/mL aprotinin, 1 mM PMSF, and 5 mM EDTA (Sigma). The lenses were then ground using a tissue grinder until they were a uniformly white solution. They were then sonicated to make certain all the cells were disrupted. The mixture was then centrifuged for 20 minutes at 0° C. at […]. The supernatant was then analyzed for protein content using […] (Pierce). Equal amounts of protein were loaded and separated on a 10% SDS polyacrylamide gel. The proteins were transferred to nitrocellulose (Midwest Scientific; pore size 0.45 μm). The western was blocked with a 3% milk solution, and then mouse anti-PKC γ (1:5000) or PKC α (1:1000) antisera (Transgenic Laboratories) were applied in a 3% milk solution overnight. […]
The effects of streptozotocin induced diabetes on PKC-γ levels in rat lens have been measured. […]

A short description of data set [4]: canine study: polyol level in dog lens (GC/MS). The data set is classed as in vivo, Beagle dogs. On the procedure: as §2
Data set [5] deals with T1, Human aldose reductase (AR) (Homo sapiens, UniProt P15121).
T1 construct: made in house; host or cells: E. coli
Description: human AR inhibition assay (enzyme assay, NADPH absorption at 340 nm). The format is biochemical. To be noted: Table 3; average of three assays; read-out: IC50, Inhibition of Human Retina Aldose Reductase. On the procedure: Human aldose reductase (AR) was obtained from overexpression of the human AR gene in an E coli system and was purified by column chromatography using a talon metal affinity column and eluted with a gradient mixture of Tris, NaCl buffer and imidazole solution. The human AR inhibition assay was conducted as follows. In a sample cuvette, 25 mM of D-xylose (75 mg/mL) and 0.15 mM of reduced nicotinamide adenine dinucleotide phosphate (NADPH) (4 mg/mL), and various amount of the inhibitor [in PBS (phosphate buffer saline) solution; the concentration of the inhibitor was determined using UV spectroscopy based on εmax at λmax of the drug] in 700 uL of PBS (a solution made of 1.44 g of Na2HPO4, 0.24 g KH2PO4, 0.2 g KCl, and 8 g NaCl in 1 L of distilled water) buffer (pH=6.1) solution and 200 uL of the AR enzyme (a final volume of 1 mL was obtained). The intensity of absorption of NADPH (λmax=340 nm) was measured. When xylose is reduced to xylitol, NADPH is converted into NADP and the absorption at 340 nm decreases. When AR is inhibited by the drug, the absorption at 340 nm of NADPH remains unchanged. Each assay was repeated three times and an average IC50 value was obtained.

Data set [6] has as its system N/N 1003 lens epithelial cells. Description: tissue culture assay: galactitol formation from galactose in lens epithelial cells (GC/MS). Conditions: for IC50 / inhibition at 10 µM: Epithelial cell; for inhibition at 10 µM: 10 uM inhibitor, 40 mM galactose media, lens epithelial cells, number of trials in parenthesis. The format is cell-based. How it is done:
The activity of the drugs is tested in various ways, including tissue culture assays and assays testing aldose reductase inhibition. For the tissue culture assay, a lens epithelial cell line is grown in galactose with or without the drug. Cells are tested for polyol accumulation by GC/mass spectrometry. Levels of PKC are tested in homogenized cell pellets or in samples of lens, retina or sciatic nerves from treated patients. Tissue is homogenized and tested for PKCγ levels using Western blots. These procedures are described in more detail below.
The ability of the drugs to inhibit galactitol formation from galactose was also studied in N/N 1003 lens epithelial cells. Two sets of lens cells were grown in media with […] 40 mM galactose. Various concentrations of inhibitors were added initially and the cells were grown for 48 hours. The cells were lysed and galactose and galactitol were extracted out and the concentrations were determined using gas chromatography and mass spectrometry by silylating the crude extract with excess of trimethylsilyl chloride, trimethylsilyl imidazole and pyridine at 70° C. for 1 h.
40 mM galactose media was supplemented with 10 uM inhibitor and fed to lens epithelial cells for 48 hours.

In data set [7] the test system is bovine lens epithelial cells. Kind of data set: toxicity in bovine lens epithelial cells. The data set is classed as cell-based. Conditions: up to 100 uM added to bovine lens epithelial cells.
[8] abbreviates: dogs, 40% galactose diet 6 weeks, orally 100 mg/kg body weight/day for 6 weeks.
The mark [9] stands for this setting: Galactosemic dogs, with inhibitor.

Read-outs that look alike come from different tables or passages of the source.

With `Cc1cc2c(c(=O)o1)C=C1CC[C@@H](CC(C)n3cnc4c(N)ncnc43)C[C@@H]1O2` (mixture of isomers) [Compound 105, (5aS,7S)-7-[(1R) and (1S)-2-(N-9-Adenyl)-1-methylethyl]-3-methyl-1H,7H-5a,6,8,9-tetrahydro-1-oxopyrano[4,3-b][1]benzopyran], the IC50 in the data set on L1210 tumor cells (read-out: IC50, cytotoxic to L1210 tumor cells) is 30 µM. For the same molecule, the “fold less active than 106 (EC50)” value in the data set with MC65 cells (MC65 cells) is on record as 20 fold. Also, the midpoint of the response in the data set on MC65 cells (MC65 cells in the absence of tetracycline), the EC50, lay at 3 µM.
`CC(=O)OCC1(C)C(OC(C)=O)CCC2(C)C1CC(OC(C)=O)C1(C)Oc3cc(-c4cccnc4)oc(=O)c3C(O)C21` (centres unmarked) [Pyripyropene A, reference compound]: in the data set on L1210 tumor cells (Mus musculus, L1210, Table 9, read-out: C50, L1210 Leukemic Cells), the IC50 is greater than 100 µM.
Regarding `O=C(O)Cc1cc2c(c(=O)o1)C=C1CCCCC1O2` (centres unmarked) [Compound 1, {1H,7H-5a,6,8,9-Tetrahydro-1-oxopyrano[4,3-b][1]benzopyran-3-yl}acetic acid], the “PKC-γ level of dog lens (read-out of intensities, FIG. 5)” value in the data set with PKC-γ [1] (control with inhibitor 1 (C+I)) came to 79.7%; with PKC-γ [1] (galactose and inhibitor 1 (G+I)), 84.1%. This molecule also yielded a PKCγ levels normalized with PKC-γ [1] (setting [8]) of 80%. The “toxicity to the rats (pathology studies)” value in data set [2] is reported as “not toxic to the rats”. In the data set with PKC-γ [3], the “PKC-γ levels in sciatic nerve cells” value is reported as “normalized”. In data set [4] (setting [9]), the “Galactitol (polyol) (GC/MS, dog lens)” value came to 27.3%. The “Galactose (GC/MS, dog lens)” value in data set [4] (setting [9]) is 72.7%. This molecule showed a polyol levels normalized in data set [4] (setting [8]) of 50%. Further, in the data set “water solubility”, the water solubility entry is given as “water soluble”. Besides, the IC50 was 0.002 µM in [5] and 6 µM in data set [6]. In addition, the “% galactitol” value is recorded as 80% in [6] (1 uM compound 1, 40 mM galactose, 48 hours) and 30% in data set [6] (10 uM compound 1, 40 mM galactose, 48 hours). Further, the “concentration of galactitol relative to galactose (GC/MS, FIG. 1B)” value in data set [6] (10 uM, 40 mM galactose, 48 hours) is “decreases the concentration of galactitol relative to galactose”. Further, in data set [6] (48 hours), the inhibition (in general, the change of the read-out against control, counted positive when it falls) at 10 µM was 80 ± 10%. The toxicity result in data set [7] is reported as “no toxicity was found”.
On to `O=C(O)C(O)Cc1cc2c(c(=O)o1)C(O)C1CCCCC1O2` (centres unmarked) [Compound 2, 2-Hydroxy-3-{1H,7H-5a,6,8,9,10,11-hexahydro-10-hydroxy-1-oxopyrano[4,3-b][1]benzopyran-3-yl}-propanoic acid], for which the water solubility result in the data set “water solubility” is reported as “water soluble”. Also, the IC50 in [5] was determined as 0.02 µM. Besides, the inhibition at 10 µM in [6] (48 hours) was less than 10%. The toxicity entry in data set [7] is on record as “no toxicity was found”.
Take `COc1ccc2c(C(=S)N(C)CC(=O)O)cccc2c1C(F)(F)F` [Tolrestat, reference compound]: the “PKC-γ levels in lens epithelial cells” value in the data set on PKC-γ [3] (40% galactose feed 9 days, FIG. 2, FIG. 3A) is recorded as “remained near normal”. Besides, the “PKC-γ levels in sciatic nerve cells” value in the data set with PKC-γ [3] is “normalized”. For the same molecule, the water solubility entry in “water solubility” was “insoluble in water”. In addition, the “% galactitol” value in [6] (0.5 uM Tolrestat, 40 mM galactose, 48 hours) was 100%; in [6] (1 uM Tolrestat, 40 mM galactose, 48 hours), 90%; in data set [6] (7 uM Tolrestat, 40 mM galactose, 48 hours) it was 53%. The molecule also yielded an IC50 in data set [6] of 8 µM. Moreover, the inhibition at 10 µM in [6] (48 hours) stood at 95 ± 4%.
